According to patent US12390467B2, “Necroptosis inducers or autophagy inhibitors or a combination thereof” (The University of Toledo, priority 2018, dated 2025):
pIC50: −log10 of the molar value.

What was measured:
Type in all cases: cell-based
[1] = system: RIP, p-RIP, MLKL, caspase 8 in MDA-MB468 cells; assay: Western blot, necroptotic proteins, MDA-MB468
Experimental: (§1) The TNBC cells were seeded in a culture flask and incubated for 24 h. The cells were then incubated with different concentrations of the lead compounds and re-incubated for an additional 12 or 24 h. […] The bicinchoninic acid (BCA) was used to determine protein concentration in the cell extracts (G-BIOSCIENCES, St. Louis, MO, USA). […] The membrane was blocked using 5% milk in Tris-buffered Tween 20 saline for 30 minutes. The membrane was then incubated overnight with primary antibodies against Bak, Bax, Bcl-2, caspase9, caspase 3, caspase 7, PARP, cytochrome c, N-cadherin, E-cadherin, c-Myc, dishevelled segment polarity protein 3 (DVL3), dishevelled segment polarity protein 2 (DVL2), Vimentin, mitogen-activated protein kinase kinase (MAPKK also known as MEK1/2), β-catenin, low-density lipoprotein receptor-related protein 6 (LRP6), receptor-interacting protein kinase (RIP), phosphorylated RIP (p-RIP), mixed lineage kinase domain like pseudokinase(MLKL), Caspase 8, light chain 3 (LC3), lysosomal-associated membrane protein 1 (LAMP1), unc-51 like autophagy activating kinase 1 (ULK1), ras associated protein 7 (Rab7), ras associated protein 5 (Rab5), Beclin 1, mechanistic target of rapamycin (mTOR), tumor necrosis factor alpha (TNF-α), tumor necrosis factor receptor 1 (TNFR1), tumor necrosis factor receptor 2 (TNFR2), Fas-associated protein with death domain (FADD), Fas ligand (Fas), TNF-related apoptosis-inducing ligand (TRAIL), death receptor 5 (DR5), Tumor necrosis factor receptor type 1-associated DEATH domain (TRADD), receptor-interacting protein kinase 3 (RIP3), β-actin or GAPDH in 1:1000 dilution in 5% milk or 5% BSA at 4° C. Horseradish peroxidase-labeled (HRP) anti-rabbit or anti-mouse secondary antibodies (1:5,000 dilution) were added and incubated the next day for an additional 1 h. A ChemiDoc™ MP System imaging system from Bio-Rad (Hercules, CA, USA) was used for blots reading. Blots were used to obtain the protein bands, followed by quantification of the bands using image J software (NIH, Bethesda, MD, USA). All of the data were expressed as the ratio of β-actin or GAPDH.

[2] = target: T1, BCRP (ABCG2), MCF-7 M100 breast cancer cells (Homo sapiens, UniProt Q9UNQ0); assay: Hoechst 33342 assay for BCRP modulation; details: concentration dependent
T1 construct: endogenous in cells; host or cells: MCF-7 M100 breast cancer cells
Experimental: Ability of BCRP to efflux nuclear stain Hoechst 33342 was used to identify the molecules which interfere with BCRP transporter activity. About 14000 cells of MCF-7 M100 breast cancer cells were seeded in each well in 96 well plates and allowed to grow until confluency for 4-5 days. Then media was replaced with phenol red free RPMI media and cells were treated with indicated concentrations of TPH104s and 5 μg/mL of Hoechst 33342. Fluorescence measured after 60 minutes with excitation at 361/20 nm and at emission 497/20 nm using the BioTek Cytation 5 imaging multi-mode reader (Bio-Tek, Winooski, VT). DMSO (0.5% v/v) was used as the vehicle, and 0.5 μM of BCRP inhibitor, Ko143 was used as a positive control and 15 μM of P-gp modulator, verapamil was used as negative control.

[3] = system: β-catenin in MDA-MB468; assay: Western blot, β-catenin, MDA-MB468
Experimental: The TNBC cells were seeded in a culture flask and incubated for 24 h. The cells were then incubated with different concentrations of the lead compounds and re-incubated for an additional 12 or 24 h. […] The bicinchoninic acid (BCA) was used to determine protein concentration in the cell extracts (G-BIOSCIENCES, St. Louis, MO, USA). […] The membrane was blocked using 5% milk in Tris-buffered Tween 20 saline for 30 minutes. […] A ChemiDoc™ MP System imaging system from Bio-Rad (Hercules, CA, USA) was used for blots reading. Blots were used to obtain the protein bands, followed by quantification of the bands using image J software (NIH, Bethesda, MD, USA). All of the data were expressed as the ratio of β-actin or GAPDH.

[4] = system: EMT and Wnt/β-catenin signaling proteins in BT-20 cells; assay: Western blot, EMT and Wnt/β-catenin proteins, BT-20
Experimental: as §1

[5] = system: normal human mammary epithelial cells (HMEC); assay: MTT cell viability assay, HMEC
Experimental: The following cancer and non-cancer cell lines were used in the initial cytotoxicity screening of the TPH104 compounds: triple negative breast cancer (TNBC): MDA-MB468, MDA-MB 231, and BT-20; non-TNBC: MCF-7 and ZR-75-1; ovarian: Ov2008; prostate: DU145; colon: HCT-116, S1, and LOVO; lung: H460; normal kidney: HEK-293; normal breast: HMEC; and normal colon: CRL-1459. All cells were cultured in Dulbecco's modified Eagle medium (DMEM), supplemented with 10% fetal bovine serum (FBS), and 1% penicillin/streptomycin (P/S). Cells were allowed to grow as adherent monolayers in T25 flasks in a humidified incubator with 5% CO2 at 37° C. for a period of 24 h, unless otherwise specified for certain experiments.
The MTT assay was used to determine the cytotoxicity of all of the compounds. Briefly, in a 96-well flat-bottom cell culture plate, the cells were seeded at a density between 3-5×10^3 cells/well (180 μl in each well) and incubated for 24 h (a hemocytometer was used for cell counting). The next day, the cells were incubated with different concentrations of the nine compounds (0, 0.1, 0.3, 1, 3, 10, 30, and 100 μM) for 72 h. After 72 h, 20 μl of 5 mg/ml of 3-(4,5-dimethylthiazol-2-yl)-2,5-diphenyltetrazolium bromide (MTT) was added to the plate and incubated with the cells for 3 h at 37° C. In this experiment, the living cells will reduce the soluble MTT dye to non-soluble purple formazan crystals. Following incubation, the media containing MTT removed via suction and 100 μL of 100% dimethyl sulfoxide (DMSO) was added to dissolve the formazan crystals. Subsequently, the plate was shaken for 2 minutes and the absorbance was measured at a wavelength of 570 nm using a SpectraMax iD3 Multi-Mode Microplate Reader (Molecular Devices, Sunnyvale, CA). The IC50 values of each compound were calculated and used to determine the selectivity ratio (IC50 in normal cells/IC50 in cancer cells) of each compound as previously described. Based on the results obtained from these experiments, the compound TPH104, which had the lowest IC50 value, was selected for further experiments.

T1 sequence (Q9UNQ0 whole entry): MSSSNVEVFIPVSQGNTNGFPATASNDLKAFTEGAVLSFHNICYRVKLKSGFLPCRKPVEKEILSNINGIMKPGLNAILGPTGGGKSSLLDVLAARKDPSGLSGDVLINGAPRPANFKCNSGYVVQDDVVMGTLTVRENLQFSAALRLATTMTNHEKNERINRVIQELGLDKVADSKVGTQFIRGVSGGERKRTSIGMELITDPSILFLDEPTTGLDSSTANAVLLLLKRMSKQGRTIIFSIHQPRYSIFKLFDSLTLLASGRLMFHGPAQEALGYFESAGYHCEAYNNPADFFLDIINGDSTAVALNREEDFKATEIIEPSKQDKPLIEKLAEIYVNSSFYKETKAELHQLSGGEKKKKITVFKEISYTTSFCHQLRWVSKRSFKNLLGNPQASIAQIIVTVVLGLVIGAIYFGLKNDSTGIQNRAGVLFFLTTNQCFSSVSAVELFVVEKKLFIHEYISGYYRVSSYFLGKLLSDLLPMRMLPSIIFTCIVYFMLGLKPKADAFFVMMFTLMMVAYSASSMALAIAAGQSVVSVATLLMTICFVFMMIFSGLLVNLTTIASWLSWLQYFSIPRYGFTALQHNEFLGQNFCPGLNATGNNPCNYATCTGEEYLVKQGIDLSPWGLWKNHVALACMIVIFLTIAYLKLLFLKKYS

Q: How did the “expression of caspase 8” value ([1]; 0.5, 1, 2, and 5 μM) turn out when `COc1ccc(O)c(/C=N/Nc2ncnc3scc(-c4ccc(C)cc4)c23)c1` [TPH104] was run?
A: Its value is “significantly decreased”.

Q: And the “expression levels of MLKL” value ([1]; 1, 2, and 5 μM)?
A: Its value is “significantly increased”.

Q: And the “expression of p-RIP” value ([1]; 1, 2, and 5 μM)?
A: Its value is “significantly increased”.

Q: What about the “expression of RIP1” value ([1]; 1, 2, or 5 μM for 12 h) of the same molecule?
A: Its value is “significantly increased”.

Q: And the “efflux function of ABCG2” value [2]?
A: The value was “blocking the efflux function”.

Q: What about the “expression of β-catenin” value [3] of the same molecule?
A: Its value is “significantly decreased”.

Q: And the “expression levels of DVL3, DVL2, vimentin, and MEK1/2” value ([4]; 2 μM and 5 μM)?
A: Its value is “significantly decreased”.

Q: What about the “expression of N-cadherin” value ([4]; 2 μM and 5 μM) of the same molecule?
A: Its value is “significantly decreased”.

Q: What about the “expression of c-Myc” value ([4]; 0.5, 1, 2, and 5 μM) of the same molecule?
A: Its value is “significantly decreased”.

Q: What about the “expression of β-catenin or LRP6” value ([4]; 0.5, 1, 2, and 5 μM) of the same molecule?
A: Its value is “did not significantly alter”.

Q: What about the “expression of E-cadherin” value ([4]; 1, 2, or 5 μM) of the same molecule?
A: Its value is “significantly increased”.

Q: What about the “selectivity fold on TNBC cells compared to normal human mammary epithelial cells” value [5] of the same molecule?
A: Its value is “more than 100 fold”.

Q: What about the “IC50 for HMEC, fold higher than the IC50 values for TNBC cells” value ([5]; HMEC vs TNBC cells) of the same molecule?
A: The value was 330-411 fold.

Q: And the pIC50 ([5]; Homo sapiens, HMEC, MTT, 72 h, Normal, read-out: IC50 ± SD, HMEC)?
A: Its pIC50 is 4.08.
